Patent US9586959B2, “Substituted tricyclic heterocycles as histamine 4 receptor inhibitors” (C&C RESEARCH LABORATORIES, priority 2011, dated 2017)

Key:
[1] = biological target: human histamine 4 receptor (hH4R) (Homo sapiens (Human), UniProt Q9H3N8); experiment: Binding affinity of human histamine 4 receptor (hH4R), [3H] labeled histamine displacement; conditions: hH4R-overexpressed cell membrane, [3H] histamine
Procedure, shortened: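 Membranes of hH4R-overexpressing cells (25 μg) incubated with compound and [3H]histamine (diluted to 1 μM before addition) for 30 min at 27° C. Non-specific binding defined with histamine (100 μM before addition); bound radioligand collected by filtration on PEI-presoaked glass fibre, washed with 50 mM Tris-HCl pH 7.4, counted by scintillation (CPM).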

[2] = biological target: human histamine 3 receptor (hH3R) (Homo sapiens (Human), UniProt Q9Y5N1); experiment: Binding affinity of human histamine 3 receptor (hH3R), [3H] labeled N-α-methylhistamine displacement; conditions: hH3R-overexpressed cell membrane, [3H] N-α-methylhistamine
Sequence of human histamine 3 receptor (hH3R) (Q9Y5N1 whole entry): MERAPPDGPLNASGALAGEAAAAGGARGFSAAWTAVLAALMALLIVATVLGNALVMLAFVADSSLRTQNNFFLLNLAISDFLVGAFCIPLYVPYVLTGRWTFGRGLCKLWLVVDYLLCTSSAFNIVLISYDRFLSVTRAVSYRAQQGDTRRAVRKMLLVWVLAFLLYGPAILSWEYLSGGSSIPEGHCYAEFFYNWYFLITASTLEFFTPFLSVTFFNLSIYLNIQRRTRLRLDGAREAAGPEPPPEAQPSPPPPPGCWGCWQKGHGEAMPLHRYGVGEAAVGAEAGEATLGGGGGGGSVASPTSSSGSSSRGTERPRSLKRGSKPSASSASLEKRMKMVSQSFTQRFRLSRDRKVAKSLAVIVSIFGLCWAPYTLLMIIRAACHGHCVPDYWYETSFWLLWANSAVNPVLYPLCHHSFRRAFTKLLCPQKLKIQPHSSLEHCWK
Procedure, shortened: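 Membranes from cells overexpressing hH3R (15 μg) were incubated with compound and [3H]N-α-methylhistamine (20 μM stock) in 50 mM Tris-HCl pH 7.4, 5 mM MgCl2 for 30 min at 27 °C. Bound radioligand was counted by scintillation after filtration; 200 μM (R)(−)-α-methylhistamine stock defined non-specific binding; IC50 derived.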

[3] = system: histamine-induced itching, ICR mice; experiment: Histamine-induced itching model in ICR mice; format: in vivo; conditions: 50 mg/kg oral, histamine 300 nmol intradermal, 20 min count
Procedure: (§1) Female, ICR mice (8 weeks old) were purchased from OrientBio Co., Ltd. The animals were housed under conditions of controlled temperature (23±3° C.), humidity (50±5%) and lighting with food and water available ad libitum.
(§2) The hair was clipped using clippers (8000AD, THRIVE) over the rostral part of the back 24 hours before the experiment under anesthesia with isoflurane. Histamine (300 nmol) was dissolved in saline and a volume of 40 μL injected intradermally into the rostral part of the back. Mice were dosed with either vehicle (20% cyclodextrin in second distilled water) or the compound by orally administration. The Compound (50 mg/kg) dissolved in a vehicle (20% cyclodextrin in second distilled water) and administered orally at a volume of 10 mL/kg.
(§3) Mice (n=10 per group) were divided into 3 groups (normal group, control group and experimental group). The animals were randomized for similar body weight distribution. A vehicle or the compound was administered 20 minutes before injection of histamine or saline. Immediately after intradermal injection, the animals were returned to an acrylic cage (approximately 30×30×30 cm, access production) composed of four cells, to which they had been acclimated for at least 1 hour before the experiment, for observation of itch responses. A camera (Samsung, VLUUNV30) was positioned above the mice to record their response. Itch was measured by blinded counting of the number of scratching in the 20 min period immediately after the intradermal injection. A number of scratching was defined as 3 or more individual rapid scratch movements with the hind paws around the injection site (J. Allergy Clin. Immunol. 2007, 19(1), 176-183). All data were analyzed by using Excel and Prism, and all values are expressed as the mean±S.E.M. The inhibitory effect of compounds is shown as a percentage of the maximal response to histamine (100% control group).
Statistical analysis was analyzed using one-way ANOVA with Dunnett test. Values of p<0.05 were considered statistically significant.

[4] = system: substance P-induced itching, ICR mice; experiment: Substance P-induced itching model in ICR mice; format: in vivo; conditions: 50 mg/kg oral, substance P 100 nmol intradermal, 20 min count
Procedure: as §1
as §2, with “Substance P (100” for “Histamine (300”
as §3, with “distribution. A Vehicle or the” for “distribution. A vehicle or the”, “injection of substance P or saline.” for “injection of histamine or saline.”, “site (J. Toxicol. Sci. 2009, 34(4), 427-431; J. Pharmacol. Sci. 2006, 100, 285-288). All data” for “site (J. Allergy Clin. Immunol. 2007, 19(1), 176-183). All data”, “control group). Statistical analysis was analyzed using one-way ANOVA with Dunnett test. Values of p<0.05 were considered statistically significant.” for “control group).”

[5] = Metabolic stability in human microsome; conditions: for Metabolic stability (CLh. int), Human: human microsome 1 mg/mL, 5 μM compound, 1 mM NADPH

Sequence of human histamine 4 receptor (hH4R) (Q9H3N8 whole entry): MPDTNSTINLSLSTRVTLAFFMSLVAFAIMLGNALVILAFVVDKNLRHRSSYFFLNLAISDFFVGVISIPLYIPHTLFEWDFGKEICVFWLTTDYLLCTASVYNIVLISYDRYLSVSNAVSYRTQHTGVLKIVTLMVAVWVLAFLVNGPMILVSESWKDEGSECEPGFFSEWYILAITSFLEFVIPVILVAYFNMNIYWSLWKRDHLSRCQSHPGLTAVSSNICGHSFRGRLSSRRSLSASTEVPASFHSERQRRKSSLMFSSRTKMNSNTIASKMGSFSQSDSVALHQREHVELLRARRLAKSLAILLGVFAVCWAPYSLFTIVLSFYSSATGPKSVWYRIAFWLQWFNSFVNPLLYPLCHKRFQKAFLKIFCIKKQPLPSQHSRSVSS

| SMILES | IC50 [1] [µM] | IC50 [2] [µM] | Number of scratching (% changes from control group) [3] | Number of scratching (% change from control group) [4] | Metabolic stability (CLh. int), Human [5] [µL/min/mg] | % remaining in 30 minutes ([5]; human microsome, 30 minutes) |
| --- | --- | --- | --- | --- | --- | --- |
| CN1CCN(c2nc3ncc(Cl)cc3n3cnnc23)CC1 [Compound 4, 8-Chloro-4-(4-methylpiperazin-1-yl)pyrido[2,3-e][1,2,4]triazolo[4,3-a]pyrazine] | 0.04 | 90 | 94.3^1% | 50.8% | 2200 |  |
| Clc1cnc2nc(N3CCNCC3)c3nncn3c2c1 [Compound 7, 8-Chloro-4-(piperazin-1-yl)pyrido[2,3-e][1,2,4]triazolo[4,3-a]pyrazine] | 0.133 | > 100 | 61.2^1% | 60.5^1% |  | NC^y: Not calculable (99.8% remaining in 30 minutes) |
| CNC1CN(c2nc3ncc(Cl)cc3n3cnnc23)C1 [Compound 18, 1-(8-Chloropyrido[2,3-e][1,2,4]triazolo[4,3-a]pyrazin-4-yl)-N-methylazetidin-3-amine] | 0.055 | > 100 | 84.3^1% | 42.6% | 4200 |  |
| CNC1CN(c2nc3ncc(Br)cc3n3cnnc23)C1 [Compound 24, 1-(8-Bromopyrido[2,3-e][1,2,4]triazolo[4,3-a]pyrazin-4-yl)-N-methylazetidin-3-amine] | 0.036 | > 100 | 93.6^1% | 74.5^1% | 1330 |  |
| CNC1CN(c2nc3ncc(I)cc3n3cnnc23)C1 [Compound 48, 1-(8-Iodopyrido[2,3-e][1,2,4]triazolo[4,3-a]pyrazin-4-yl)-N-methylazetidin-3-amine] | 0.065 | > 100 | 67.3^1% | 33.5% | 400 |  |
| CNC1CN(c2nc3ncc(Br)cc3n3nnnc23)C1 [Compound 95, 1-(8-Bromopyrido[2,3-e]tetrazolo[1,5-a]pyrazin-4-yl)-N-methylazetidin-3-amine] | 0.044 | > 100 | 98.2^1% | 80.7^1% | 5500 |  |
